Measured values: article PMC4242290 (Nuclear Receptor Signaling, 2014)
pIC50: −log10 of the molar value. “Also recorded” adds a separate entry of the source. Where a name gives a salt, the structure may show the parent alone. *1 amine or outer side, *2 acyl side, *3 side chain or, on linkers, in order; H or OH if unused. Where a SMILES comes first, the peptide text is derived from it. Bridges are numbered along the chain shown (N, C = ends). Roman numbers before positions name the chains, in order. [ ]: non-standard residue; d: D form. Actinocin(9to1) = Cc1c2oc3c(C)ccc(C(=O)[*:1])c3nc-2c(C(=O)[*:2])c(N)c1=O; NMeV = CN[C@H](C(=O)O)C(C)C; Sar = CNCC(=O)O

Columns and labels:
[1] = molecular target: His6-hERβ LBD (Homo sapiens, UniProt Q92731); assay type: binding; settings: for DSF primary screen: change in melting temperature of ERβ LBD: 500 µM
Sequence of His6-hERβ LBD (Q92731 261-530): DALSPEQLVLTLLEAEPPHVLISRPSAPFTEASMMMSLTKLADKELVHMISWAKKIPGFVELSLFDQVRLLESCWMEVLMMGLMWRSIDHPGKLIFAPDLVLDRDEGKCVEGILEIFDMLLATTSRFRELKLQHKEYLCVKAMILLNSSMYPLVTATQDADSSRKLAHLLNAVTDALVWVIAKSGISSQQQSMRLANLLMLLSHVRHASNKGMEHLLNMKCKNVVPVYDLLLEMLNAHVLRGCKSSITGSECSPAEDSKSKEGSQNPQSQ

[2] = molecular target: T1, ERα (Homo sapiens, UniProt P03372); assay type: binding
T1 sequence (P03372 1-595): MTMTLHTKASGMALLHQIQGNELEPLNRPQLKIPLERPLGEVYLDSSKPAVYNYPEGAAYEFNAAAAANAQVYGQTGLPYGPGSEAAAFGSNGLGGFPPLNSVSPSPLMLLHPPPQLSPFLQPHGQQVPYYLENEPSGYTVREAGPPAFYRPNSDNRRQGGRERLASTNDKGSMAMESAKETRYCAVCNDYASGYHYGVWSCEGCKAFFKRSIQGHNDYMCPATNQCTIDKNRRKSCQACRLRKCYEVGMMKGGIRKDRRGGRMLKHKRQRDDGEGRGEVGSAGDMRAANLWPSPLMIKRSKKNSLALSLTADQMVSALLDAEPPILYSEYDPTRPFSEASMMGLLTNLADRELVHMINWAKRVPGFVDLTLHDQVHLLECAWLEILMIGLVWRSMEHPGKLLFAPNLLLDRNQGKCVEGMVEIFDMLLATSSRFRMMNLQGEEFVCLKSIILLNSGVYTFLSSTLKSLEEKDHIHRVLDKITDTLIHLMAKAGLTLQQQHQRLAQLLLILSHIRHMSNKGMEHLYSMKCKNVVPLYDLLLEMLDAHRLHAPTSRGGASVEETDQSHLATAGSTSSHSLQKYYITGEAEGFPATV

[3] = molecular target: T2, ERβ (Homo sapiens, UniProt Q92731); assay type: binding; settings: for β-selectivity (fold): IC50 for ERα divided by IC50 for ERβ, from FP
T2 sequence (Q92731 whole entry): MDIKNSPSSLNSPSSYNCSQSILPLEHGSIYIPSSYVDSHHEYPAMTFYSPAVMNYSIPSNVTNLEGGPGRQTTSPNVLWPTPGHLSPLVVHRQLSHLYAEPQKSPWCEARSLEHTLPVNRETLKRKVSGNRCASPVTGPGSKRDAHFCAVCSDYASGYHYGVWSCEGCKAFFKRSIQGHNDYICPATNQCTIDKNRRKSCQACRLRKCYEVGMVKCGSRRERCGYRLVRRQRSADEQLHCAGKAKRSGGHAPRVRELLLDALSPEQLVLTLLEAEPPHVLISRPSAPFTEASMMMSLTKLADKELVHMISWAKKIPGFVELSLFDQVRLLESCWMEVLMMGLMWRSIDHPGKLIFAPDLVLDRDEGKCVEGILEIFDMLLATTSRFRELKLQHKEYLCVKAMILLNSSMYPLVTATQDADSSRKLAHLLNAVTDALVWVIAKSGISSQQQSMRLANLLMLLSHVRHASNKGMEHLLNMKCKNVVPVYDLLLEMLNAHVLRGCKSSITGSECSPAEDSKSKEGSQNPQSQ

[4] = molecular target: T2, ERβ; settings: transiently transfected MCF-7 cells; cited from earlier work
[5] = molecular target: T1, ERα; settings: transiently transfected MCF-7 cells; cited from earlier work
[6] = molecular target: GAL4 DBD-ERβ LBD (Homo sapiens, UniProt Q92731); assay: GAL4 transactivation assay in HEK293T cells; assay type: cell-based
Sequence of GAL4 DBD-ERβ LBD (Q92731 264-498 limits assumed): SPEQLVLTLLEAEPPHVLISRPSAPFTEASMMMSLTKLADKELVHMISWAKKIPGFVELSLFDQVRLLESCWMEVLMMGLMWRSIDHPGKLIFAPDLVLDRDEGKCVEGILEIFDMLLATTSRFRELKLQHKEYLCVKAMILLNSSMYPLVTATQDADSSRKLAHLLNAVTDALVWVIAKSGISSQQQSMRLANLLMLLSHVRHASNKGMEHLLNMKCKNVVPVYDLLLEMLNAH

[7] = molecular target: T2, ERβ; settings: radioligand binding assay; cited from earlier work
[8] = molecular target: full length ERβ (Homo sapiens, UniProt Q92731); assay: ERE-luciferase transactivation in HeLa cells, full length ERβ; assay type: cell-based
Sequence of full length ERβ (Q92731 whole entry): as the sequence (Q92731 whole entry) above

[9] = tested on: LNCaP cells; assay: LNCaP cell proliferation; assay type: cell-based; settings: 1 μM final concentration, 24 h treatment
[10] = molecular target: T2, ERβ; settings: cited from earlier work
[11] = Phase II double-blind clinical trial; cited from earlier work

CC[C@]1(O)CC[C@H]2[C@@H]3CCC4=CCCC[C@@H]4[C@H]3CC[C@@]21C [ethylestrenol]
DSF primary screen: change in melting temperature of ERβ LBD [1]: putative binders

C[C@H]1CCC[C@H](O)CCCCCc2cc(O)cc(O)c2C(=O)O1 [zeranol]
Binding to ERα in FP (competition with fluorescein labeled E2), result in words [2]: binders

goserelin acetate
DSF primary screen: change in melting temperature of ERβ LBD [1]: elicited changes in the protein melting temperature

C[C@]12CC[C@H]3C(=CCc4cc(O)ccc43)[C@@H]1CCC2=O [equilin]
DSF primary screen: change in melting temperature of ERβ LBD [1]: putative binders

O=c1cc(-c2ccc(O)c(O)c2)oc2cc(O)cc(O)c12 [luteolin]
β-selectivity (fold) [3]: greater than 2 fold | Activation of ERβ [4]: very slight effect on ERβ | Activation of ERα [5]: no effect on ERα

CCN(CC)CCOc1ccc(C(=C(Cl)c2ccccc2)c2ccccc2)cc1 [clomiphene citrate]
DSF primary screen: change in melting temperature of ERβ LBD [1]: putative binders | Binding to ERβ in FP (competition with fluorescein labeled E2), result in words [3]: binders | pIC50 [6]: 6.66

CC/C(=C(/CC)c1ccc(O)cc1)c1ccc(O)cc1 [diethylstilbestrol, reference compound]
Binding to ERβ in FP (competition with fluorescein labeled E2), result in words [3]: binders

CCCCCC[C@H]1C(=O)O[C@H](C)[C@H](NC(=O)c2cccc(NC=O)c2O)C(=O)O[C@@H](C)[C@@H]1OC(=O)CC(C)C [antimycin A]
DSF primary screen: change in melting temperature of ERβ LBD [1]: elicited changes in the protein melting temperature

C#C[C@]1(O)CC[C@H]2[C@@H]3CCc4cc(O)ccc4[C@H]3CC[C@@]21C [ethinyl estradiol]
DSF primary screen: change in melting temperature of ERβ LBD [1]: putative binders

CC[C@H](c1ccc(O)cc1)[C@@H](CC)c1ccc(O)cc1 [hexestrol, reference compound]
DSF primary screen: change in melting temperature of ERβ LBD [1]: putative binders | Binding to ERβ in FP (competition with fluorescein labeled E2), result in words [3]: binders | Binding to ERα in FP (competition with fluorescein labeled E2), result in words [2]: binders | Ki for ERβ compared with ERα [7]: the same for both isoforms

COc1cc(/C=C/c2ccc(O)cc2)cc(OC)c1 [pterostilbene]
DSF primary screen: change in melting temperature of ERβ LBD [1]: putative binders

C[C@@H]1[C@H](O)[C@@H](C)/C=C/C=C/CC/C=C/C=C/C=C/C=C/C(O[C@H]2O[C@H](C)[C@@H](O)[C@H](N)[C@@H]2O)CC2O[C@](O)(CC(O)C(O)CCC(O)CC(O)CC(O)CC(=O)O[C@H]1C)CC(O)C2C(=O)O (some centres unmarked) [nystatin]
DSF primary screen: change in melting temperature of ERβ LBD [1]: elicited changes in the protein melting temperature

C[C@]12CC[C@H](O)CC1=CC[C@@H]1[C@@H]2CC[C@]2(C)C(=O)CC[C@@H]12 [DHEA, dehydroepiandrosterone]
Tm of His6-hERβ LBD purification product [1]: ~ 55 ºC | DSF primary screen: change in melting temperature of ERβ LBD [1]: putative binders | Binding to ERβ in FP (competition with fluorescein labeled E2), result in words [3]: binders | β-selectivity (fold) [3]: greater than 2 fold | Binding to ERα in FP (competition with fluorescein labeled E2), result in words [2]: binders | Relative transactivation activity, full length ERβ ([8]; 1 μM final concentration): greater capacity for ERβ activation than the selective partial agonist 27-hydroxycholesterol | ER subtype selectivity of transactivation (ERβ versus ERα) ([8]; full length ERs, 1 μM): strong ERβ selectivity | LNCaP cell proliferation (cell viability) [9]: Suppression of proliferation | Ki for ERβ compared with ERα [7]: lower for ERβ than ERα

C[C@@H](CO)CCC[C@@H](C)[C@H]1CC[C@H]2[C@@H]3CC=C4C[C@@H](O)CC[C@]4(C)[C@H]3CC[C@]12C [27-hydroxycholesterol, reference compound]
LNCaP cell proliferation (cell viability) [9]: Suppression of proliferation

c1ccc2c(Cc3c[nH]c4ccccc34)c[nH]c2c1 [3,3’-diindolylmethane]
Selectivity of binding to ERβ [10]: did not bind selectively to ERβ

C[C@]12CC[C@H]3[C@@H](CC=C4C[C@@H](O)CC[C@@]43C)[C@@H]1CC[C@@H]2O [5-androstenediol]
ER subtype selectivity [10]: ERβ selective

Cc1c2oc3c(C)ccc(C(=O)N[C@@H]4C(=O)N[C@H](C(C)C)C(=O)N5CCC[C@H]5C(=O)N(C)CC(=O)N(C)[C@@H](C(C)C)C(=O)O[C@@H]4C)c3nc-2c(C(=O)N[C@@H]2C(=O)N[C@H](C(C)C)C(=O)N3CCC[C@H]3C(=O)N(C)CC(=O)N(C)[C@@H](C(C)C)C(=O)O[C@@H]2C)c(N)c1=O [dactinomycin] (I: T[dV]P[Sar][NMeV] / II: T[dV]P[Sar][NMeV]; ester I:1-I:C, II:1-II:C; linker I:N-II:N via Actinocin(9to1))
DSF primary screen: change in melting temperature of ERβ LBD [1]: elicited changes in the protein melting temperature

O=C1C[C@@H](c2ccc(O)cc2)Oc2cc(O)cc(O)c21 [naringenin]
DSF primary screen: change in melting temperature of ERβ LBD [1]: putative binders | β-selectivity (fold) [3]: greater than 2 fold

C[C@]12CC[C@@H]3c4ccc(O)cc4CC[C@H]3[C@@H]1C[C@@H](O)[C@@H]2O [estriol]
Binding to ERβ in FP (competition with fluorescein labeled E2), result in words [3]: binders; also recorded: greater relative affinity than estrone

medicarpin
β-selectivity (fold) [3]: greater than 2 fold

CCOC(=O)C1=C(C)NC(C)=C(C(=O)OC)C1c1cccc(Cl)c1Cl (centres unmarked) [felodipine]
DSF primary screen: change in melting temperature of ERβ LBD [1]: showed up as hits in the primary assay

C=Cc1cc(O)cc2nc(-c3ccc(O)c(F)c3)oc12 [ERB-041]
Efficacy in rheumatoid arthritis [11]: failed to demonstrate efficacy
